Where two headings read alike, the source gives them in different places.
Tests used:
[1] = system: T- and B- lymphocyte isolated from mouse spleens; assay: Lymphocyte Blastogenesis Assay; type: in vivo; details: for RPMI CONTROL: no mitogen (Table 7); for activation at 25 mg/kg / activation at 50 mg/kg / activation at 100 mg/kg: Mus musculus, Lymphocyte
Source text: This assay measures the ability of the compound under test to affect DNA synthesis and mitosis of T- and B- lymphocyte isolated from mouse spleens.
Mitogens are substances which stimulate DNA synthesis and mitosis. The mitogens used in these studies were phytohemaglutinin (PHA) which is isolated from the red kidney bean and concanavalin-A (Con-A) which is isolated form the jack bean. Con-A binds to specific receptors (glycoproteins) containing mannosyl or glycosyl moieties and stimulates all murine T-cells to synthesize DNA, divide, and release lymphokines. Con-A in a soluble form allows distinction between T- and B-cells in the mouse, because although both T- and B-cells can bind 106 molecules of Con-A per cell, only T-cells are stimulated when this lectin is presented in a soluble form. PHA stimulates only subpopulations, T-2 cells, of T-cells in the mouse. Also, Con-A stimulates the production of cytokines such as Interleukin-2 (IL-2). In humans, both T- and B-cells are probably stimulated. The activation of B-cells by PHA may be indirect and mediated by the release of soluble mediators from PHA-activated T-cells.
The lymphocyte blastogenesis test is a method to assess the ability of immunocompetent T- or B-cells to respond to a polyclonal mitogen (i.e. PHA or Con-A) or a specific antigen. It may be performed on lymphocytes obtained from mice treated with immunostimulators in vivo or the entire assay can be performed in vitro. The assay as described below uses minimal doses of polyclonal mitogens to induce blastogenesis (proliferation measure by DNA synthesis), in order to be able to assess the phenomena of amplification.
1. Sacrifice two mice/experimental group by cervical dislocation.
14. […]
15. Include in the experiment a control plate which contains the same cells group as above, but receive a 0.1 ml of media instead of mitogen.
18. After 48 hours all wells receive 0.025 mls of a 0.4 microcurie/ml solution of C-14 methyl thymidine and incubate at 37 C, 5% CO-2 for 18 hours.

[2] = system: plaque forming cells, antibody specific to sheep red blood cells; assay: Jerne Hemolytic Plaque Assay; type: in vivo, mice
Protocol: This assay measures the IgM or IgG isotypes of specific antibody produced by antigen used to immunize the mice. […] The direct assay detects IgM and the indirect assay detects IgG-specific antibody.
Washed spleen cells are added to an agarose (FMC, Rockland, Me.) preparation containing sheep red blood cells (SRBC) and guinea pig complement. A drop of this mixture is transferred to a small petri dish; a cover slip is then placed over the drop to flatten it. The agarose prep is allowed to solidify. Then, the dishes are placed in a small humidified changer inside a CO-2 incubator overnight.
Small pinpoint cleared areas (plaques) will be observed under the cover slip. The cleared areas are caused by antibody, specific to the SRBC's being released by stimulated spleen cells and in conjunction with the complement, lyse surrounding SRBC's. These plaque forming cells (PFC's) are counted, and calculations are performed to obtain PFC's per […] spleen cells.
1. Spleens are harvested from mice according to a standard procedure and adjusted to a final concentration of 20% in […].
14. Count and record the number of hemolytic plaques per plate. Average plaque counts between the duplicate sets. Multiply the average number of plaques per group by 2.5 to obtain the number of plaque forming cells per million spleen cells.

Structure (SMILES): O=C1CCCC(C2(O)C(=O)OC3C(O)COC32O)C1 (single isomer, unassigned) [KCBL-A]
- CON-A 6 ug/ml ([1]; 12.5 mg/kg (Table 7)): 3412.0 counts per minute
- PHA 14 ug/ml ([1]; 12.5 mg/kg (Table 7)): 1450.0 counts per minute
- RPMI CONTROL ([1]; 12.5 mg/kg): 94.0 counts per minute
- CON-A 6 ug/ml ([1]; 25.0 mg/kg (Table 7)): 5657.0 counts per minute
- PHA 14 ug/ml ([1]; 25.0 mg/kg (Table 7)): 2178.0 counts per minute
- RPMI CONTROL ([1]; 25.0 mg/kg): 77.0 counts per minute
- CON-A 6 ug/ml ([1]; 50.0 mg/kg (Table 7)): 5059.0 counts per minute
- PHA 14 ug/ml ([1]; 50.0 mg/kg (Table 7)): 2369.0 counts per minute
- RPMI CONTROL ([1]; 50.0 mg/kg): 50.0 counts per minute
- CON-A 6 ug/ml ([1]; 100.0 mg/kg (Table 7)): 4104.0 counts per minute
- PHA 14 ug/ml ([1]; 100.0 mg/kg (Table 7)): 2384.0 counts per minute
- RPMI CONTROL ([1]; 100.0 mg/kg): 76.0 counts per minute
- activation at 25 mg/kg ([1]; 25.0 mg/kg (Table 7), read-out: % INCREASE (CON-A 6 ug/ml)): 56.6%
- activation at 25 mg/kg ([1]; 25.0 mg/kg (Table 7), read-out: % INCREASE (PHA 14 ug/ml)): 26.1%
- activation at 50 mg/kg ([1]; 50.0 mg/kg (Table 7), read-out: % INCREASE (CON-A 6 ug/ml)): 40%
- activation at 50 mg/kg ([1]; 50.0 mg/kg (Table 7), read-out: % INCREASE (PHA 14 ug/ml)): 37.1%
- activation at 100 mg/kg ([1]; 100.0 mg/kg (Table 7), read-out: % INCREASE (CON-A 6 ug/ml)): 13.6%
- activation at 100 mg/kg ([1]; 100.0 mg/kg (Table 7), read-out: % INCREASE (PHA 14 ug/ml)): 38%
- % INCREASE ([2]; 12.5 mg/ml (Table 10)): 100%
- PFC ([2]; 12.5 mg/ml (Table 10)): 112.00 PFC/1 MILLION CELLS
- % INCREASE ([2]; 25 mg/kg (Table 10)): 104%
- PFC ([2]; 25 mg/kg (Table 10)): 115.00 PFC/1 MILLION CELLS
- % INCREASE ([2]; 50 mg/kg (Table 10)): 193%
- PFC ([2]; 50 mg/kg (Table 10)): 165.00 PFC/1 MILLION CELLS
- % INCREASE ([2]; 100 mg/kg (Table 10)): 318%
- PFC ([2]; 100 mg/kg (Table 10)): 235.00 PFC/1 MILLION CELLS
- % INCREASE ([2]; 200 mg/kg (Table 10)): 215%
- PFC ([2]; 200 mg/kg (Table 10)): 177.50 PFC/1 MILLION CELLS
